Structures can show the parent of a compound that is named as a salt. Where two headings read alike, the source gives them in different places.
How the values were obtained:
[1] = Impurities in AeroVanc vancomycin powder stored for three months at 5° C. and 25° C., improved HPLC impurity method; assay type: physicochemical
Method: Calculate the concentration of each individual impurity in samples 1A, 2A and 3A, as follows:
Where: • I %i=Impurity concentration in sample 1A, 2A or 3A (as percentage) • 10=Dilution factor (50 mL/5.0 mL) • CV=Vancomycin concentration in sample solutions 1B, 2B or 3B (μg/mL) • Ci=Concentration of impurity in sample solution 1A, 2A or 3A (μg/mL) • Ci,total=Total concentration of impurities in sample solutions 1A, 2A or 3A
The method disclosed herein was also applied to the determination of degradation products of AeroVanc vancomycin powder stored for three months at 5° C. and 25° C.

[2] = Stated stability and handling properties; assay type: physicochemical; conditions: reference standards handling
Description: Vancomycin is a potent antibiotic reserved for serious drug-resistant bacterial infections including intravenous infusion for complicated infection (including MRSA) and oral administration for severe gastro-intestinal (GI) infections caused by Clostridium difficile. It was first isolated from soil bacterium (Amycolatopis orientalis) by Kornfeld in 1953, and first commercialized by Eli Lilly in 1954. Vancomycin, which is listed on the WHO's List of Essential Medicines, is a complex glycopeptide derived from N. orientalis with significant analytical challenges, including the presence of at least 12 identified impurities and a greater number of unknown impurities. […] Vancomycin has six ionizable groups and some of the impurities have seven. It is difficult to handle (high surface energy) and difficult to formulate. AeroVanc is a dry-powder inhalation product (DPI) under development for the treatment of methicillin resistant S. aureus (MRSA) infections in the lungs of cystic fibrosis patients. AeroVanc (vancomycin hydrochloride inhalation powder) contains the antibiotic and a single excipient, L-leucine. AeroVanc comprises a dry powder formulation which is delivered to the lungs by oral inhalation using a unit dose delivery device.

[3] = Impurity profiles of vancomycin degraded in solution and solid state (FIG. 22); assay type: physicochemical
Description: The method disclosed herein was successfully applied to the determination of degradation products of vancomycin in the solution and solid states.

[4] = background statement; cited from earlier work
[5] = AeroVanc vancomycin powder stored three months at 5° C.
[6] = AeroVanc vancomycin powder stored three months at 25° C.

Compound: CC(C)C[C@@H](N)C(=O)N[C@H]1C(=O)N[C@@H](CC(N)=O)C(=O)N[C@H]2C(=O)N[C@H]3C(=O)N[C@H](C(=O)N[C@H](C(=O)O)c4cc(O)cc(O)c4-c4cc3ccc4O)[C@H](O)c3ccc(c(Cl)c3)Oc3cc2cc(c3O[C@@H]2O[C@H](CO)[C@@H](O)[C@H](O)[C@H]2O[C@H]2C[C@](C)(N)[C@H](O)[C@H](C)O2)Oc2ccc(cc2Cl)[C@H]1O [N-demethyl, N-demethyl-vancomycin (EP Impurity A)]
- Impurity (%) [1, 5]: 1.757%
- Impurity (%) [1, 6]: 1.722%

Compound: CC(C)C[C@H](C(=O)N[C@H]1C(=O)N[C@@H](CC(N)=O)C(=O)N[C@H]2C(=O)NC3C(=O)N[C@H](C(=O)N[C@H](C(=O)O)c4cc(O)cc(O)c4-c4cc3ccc4O)[C@H](O)c3ccc(c(Cl)c3)Oc3cc2cc(c3O[C@@H]2OC(CO)C(O)C(O)[C@H]2O[C@H]2C[C@](C)(N)[C@H](O)[C@H](C)O2)Oc2ccc(cc2Cl)[C@H]1O)N(C)C (some centres unmarked) [N-methyl, N-methyl-vancomycin]
- Impurity (%) [1, 5]: 0.019%
- Impurity (%) [1, 6]: 0.027%

Compound: CN[C@H](CC(C)C)C(=O)N[C@H]1C(=O)N[C@@H](CC(N)=O)C(=O)N[C@H]2C(=O)N[C@H]3C(=O)N[C@H](C(=O)N[C@H](C(=O)O)c4cc(O)cc(O)c4-c4cc3ccc4O)[C@H](O)c3ccc(c(Cl)c3)Oc3cc2cc(c3O[C@@H]2O[C@H](CO)[C@@H](O)[C@H](O)[C@H]2O[C@H]2C[C@](C)(N)[C@H](O)[C@H](C)O2)Oc2ccc(cc2Cl)[C@H]1O [Vancomycin HCl, vancomycin hydrochloride]
- light sensitivity and hygroscopicity [2]: light sensitive and hygroscopic

Compound: CN[C@H](CC(C)C)C(=O)N[C@H]1C(=O)N[C@@H](CC(N)=O)C(=O)N[C@H]2C(=O)N[C@H]3C(=O)N[C@H](C(=O)N[C@H](C(=O)O)c4cc(O)cc(O)c4-c4cc3ccc4O)[C@H](O)c3ccc(c(Cl)c3)Oc3cc2cc(c3O[C@@H]2O[C@H](CO)[C@@H](O)[C@H](O)[C@H]2O[C@H]2C[C@](C)(N)[C@H](O)[C@H](C)O2)Oc2ccc(cc2Cl)[C@H]1O [Vancomycin]
- impurity profile of degraded vancomycin ([3]; degraded in aqueous solution, compared to the degraded solid): larger amounts of CDP-1 Minor, CPD-1 Major and additional unknowns
- impurity profile of degraded vancomycin ([3]; degraded solid, compared to the degraded aqueous solution): increased desamido-succinimide vancomycin and agluco vancomycin
- net charge (at high pH): −4
- net charge (at low pH): +2
- net charge (plateau region between pH 3.5 and 5.5): +1
- stability at room temperature [4]: unstable at room temperature

Compound: Agluco-vancomycin (EP Impurity C)
- Impurity (%) [1, 5]: 0.139%
- Impurity (%) [1, 6]: 0.163%

Compound: Cis-chloro-(2)-vancomycin
- Impurity (%) [1, 5]: 0.194%
- Impurity (%) [1, 6]: 0.200%

Compound: De-((L-asn)-L-gln-vancomycin (EP Impurity B) [De-(L-Asn)-L-Gln]
- Impurity (%) [1, 5]: 0.152%
- Impurity (%) [1, 6]: 0.151%

Compound: Des-(amido)-aspartyl-vancomycin (CDP-1 minor) [CDP-1minor]
- Impurity (%) [1, 5]: 0.017%
- Impurity (%) [1, 6]: 0.026%

Compound: Des-(amido)-succinimido- vancomycin [Des-amido-succinimido]
- Impurity (%) [1, 5]: 0.577%
- Impurity (%) [1, 6]: 0.759%

Compound: Desvancosamino-vancomycin (EP Impurity D) [Des-vancosamino]
- Impurity (%) [1, 5]: 0.343%
- Impurity (%) [1, 6]: 0.398%

Compound: Epi-(26R)-vancomycin [Epi-26(R)]
- Impurity (%) [1, 5]: 0.610%
- Impurity (%) [1, 6]: 0.628%

Compound: Monodechloro-(2)-vancomycin
- Impurity (%) [1, 5]: 0.069%
- Impurity (%) [1, 6]: 0.072%

Compound: Monodechloro-(6)-vancomycin [Mono-dechloro-(6)]
- Impurity (%) [1, 5]: 0.679%
- Impurity (%) [1, 6]: 0.671%
